# Measurements as given in US8242152B2, “Use of 4-[(4-thiazolyl)phenoxy]alkoxy-benzamidine derivatives for the prophylaxis and treatment of osteoporosis” (Dong Wha Pharmaceutical Co., Ltd., priority 2001, dated 2012).
# Several values for one entry are separate records, joined by “and”; a condition that tells them apart may be missing. Equal entries are not always repeated. Where two headings read alike, the source gives them in different places.
# Key:
# LTB4 receptor = LTB4 receptor (Homo sapiens, UniProt Q15722); design: endogenous in cells; host or cells: human neutrophils (PMN) purified from fresh blood; conditions: cited from earlier work
# [1] = test system: osteoclast differentiation; test: Inhibitory effects on osteoclast differentiation, co-culture of bone marrow cells and osteoblast, TRAP staining (Example 1); format: cell-based, mice; conditions: 7-day co-culture; for inhibition at 0.0032 µM / inhibition at 0.016 µM / inhibition at 0.08 µM / inhibition at 0.4 µM / IC50: Mus musculus, Osteoclast, 168 h; for inhibition at 0.0032 µM / inhibition at 0.016 µM / inhibition at 0.08 µM / inhibition at 0.4 µM: read-out: % inhibitory action
# Protocol: The effects of each test substance on osteoclast proliferation and differentiation process were evaluated via co-culture with osteoblast.
# Tibia and Femora were aseptically ectomized from male ddY mice of 6-8 weeks to harvest bone marrow cells by using a syringe (21 G, Korea Green Cross).
# The bone marrow cells were suspended in 5 mL α-MEM medium (Gibco BRL Co.) containing sodium bicarbonate (2.0 g/L), streptomycin (100 mg/L) and penicillin ([…]). The harvested cells were centrifuged at 800×g for 5 minutes to collect the whole quantity. To remove the red blood cells within bone marrow cells, 3 mL of Tris HCl (0.83% NH4Cl, pH7.5) was added and well mixed. After centrifuging the above cells, the numbers of bone marrow cells were counted and then the bone marrow cells were immediately used for a co-culture system with osteoblast.
# The calvaria were aseptically ectomized from neonate ICR mice of 1-2 days, washed with PBS solution and incubated with a mixture of enzyme solutions (0.2% collagenase and 0.1% dispase) at 37° C. gentle shaker. This procedure was sequentially repeated (10, 10, 10, 20, 20 and 20 minutes), and then the calvaria cells having the characteristics of osteoblast, were mostly released from III˜VI digestion groups, were collected and washed with the medium (serum-free α-MEM). The washed cells were cultivated in α-MEM medium containing 10% FBS for 2-3 days. After subculturing, these cells were used for this experiment, and diluted to reach the concentration of 1×10^6 cells/mL for storage at −70° C.
# The volume of final specimen added to the medium was determined at the ratio of 1:1000.
# Bone marrow cells, so prepared from the above No. 1, and osteoblast from calvaria were co-cultured for osteoclast differentiation. Both bone marrow cells (25,000 cells/cm^2) and osteoblast (10,000 cells/cm^2) were plated on a 96 well plate in α-MEM medium containing 10% FBS with the specimen, and then the reaction mixture was cultured for 7 days. Some differentiation factors, such as dexamethasone (10^−6M) and vitamin D3(10^−9M), were also continuously added to the medium from the first day of cultivation. The media were changed with fresh media containing a mixture of specimens and differentiation factors every 2-3 day.
# TRAP was used as a marker to measure osteoclast in consideration of its characteristics showing a positive reaction to TRAP staining solution. TRAP staining solution was prepared in a manner such that 5 mg of naphtol AS-MS phosphate (sigma N-4875), a substrate and 25 mg of coloring agent (Fast Red Violet LB salt) were dissolved in N,N-dimethylformamide (about 0.5 mL) and with the addition of 0.1N NaHCO3 buffer solution (50 mL) containing 50 mM of tartaric acid. The reaction mixture was stored in a refrigerator prior to use.
# After a 7-day culture, the medium was removed from the wells and then the cells were washed once with PBS solution and fixed to PBS containing 10% formalin for 2-5 minutes. The cells were also fixed in a mixed solution, ethanol and acetone (1/1), for about 1 minute, and dried off. The cells were further treated by TRAP staining solution for 15 minutes and washed with PBS to measure the experimental results with the staining degree of cells under a microscopic examination.
# The counts of osteoclast only with more than 3 nuclei showing the TRAP-positive reaction were calculated under a microscopic examination, and each test was reconfirmed over three times to insure more reliable data.
# As shown in the following table 1, the inhibitory effect of each experimental group on the differentiation of osteoclast versus controls were expressed by inhibitory percentage value, and 50% inhibitory concentration on osteoclast differentiation was calculated as IC50.
# [2] = test system: bone resorption of osteoclast; test: Measurement of bone resorption, pit formation assay on ivory fragment (Example 3); format: cell-based, mice; conditions: 24 hrs; for inhibition at 0.016 µM / inhibition at 0.08 µM / inhibition at 0.4 µM / inhibition at 2 µM / inhibition at 10 µM / IC50: Mus musculus, Osteoclast; for inhibition at 0.016 µM / inhibition at 0.08 µM / inhibition at 0.4 µM / inhibition at 2 µM / inhibition at 10 µM: read-out: Inhibitory action (%)
# Protocol: The mature osteoclast (OCL) is mainly involved in removing mineral by bone resorption. This experiment is designed to measure the inhibitory effects of each test substance on the bone resorption of osteoclast using ivory fragment (Eijiro Jimi et al. Endocrinology 137, p 2187-2190, 1996).
# The co-culture system for both bone marrow cells and osteoblast was performed using a cultivation dish containing collagen gel (cell matrix Type I-A). Collagen, 5-fold concentrated α-MEM medium and 0.05M NaOH buffer solution (2.2% NaHCO3, pH7.4) were mixed at the ratio of 7:2:1 at a low temperature, and then storage at a low temperature. Then, 4 mL of the mixed solution was added to a 100 mm culture dish, applied evenly and left at 37° C. for 5 minutes.
# Using α-MEM medium, the mixture of both bone marrow cells (about 1×10^7 cells/plate) and osteoblast (about 5×10^5 cells/plate), so separated from Example 1, were plated on a 100 mm dish containing collagen gel. The co-culture was performed in the presence of differentiation factors such as vitamin D (10^−9M) and dexamethasone (10^−6M). As described above, a great number of mature multinucleated osteoclasts with the ability of bone resorption were obtained via a 7-day co-culture. The medium was removed from the cells and with the addition of 0.2% collagenase solution, the attachment cells were separated by incubation for 20 minutes. The cells were collected via centrifuge. The harvested crude osteoclasts were again diluted in α-MEM medium to make the cells of 5,000 cells/100 ul.
# Hematoxylin staining solution was prepared in a manner such that hematoxylin (1 g) was dissolved in 500 ml of distilled water and was added to 500 ml of distilled water and […] (0.2 g). The reaction mixture was stirred for 15 mins. Ammonium alum (50 g) and 7.5 ml of acetic acid were further added to the reaction mixture and filtered off.
# After the ivory fragments, cut to a thickness of 1 mm, were sterilized, each fragment was placed into a 96 well plate, and 100 ul α-MEM medium (10% FBS) was added. To measure its inhibitory effect against the pit formation of osteoclast, each test substance was added in a maximum amount of 3 ul per concentration.
# With the addition of test substances, 100 ul of osteoclast solution was further added, mixed vigorously and cultured using a 5% CO2 incubator at 37° C. for 24 hrs. To observe the pits formed on the ivory fragments, the portion of grown osteoclast was directed upward and placed on a paper towel after removing from the 96 well plate. With the removal of cells on the ivory, 10 ul of hematoxylin solution was dropped on the ivory to perform the staining for about 5 minutes. The surface of the ivory fragments was rubbed with a soft cotton pole to completely remove the staining solution.
# LTB4 receptor, sequence (Q15722 whole entry): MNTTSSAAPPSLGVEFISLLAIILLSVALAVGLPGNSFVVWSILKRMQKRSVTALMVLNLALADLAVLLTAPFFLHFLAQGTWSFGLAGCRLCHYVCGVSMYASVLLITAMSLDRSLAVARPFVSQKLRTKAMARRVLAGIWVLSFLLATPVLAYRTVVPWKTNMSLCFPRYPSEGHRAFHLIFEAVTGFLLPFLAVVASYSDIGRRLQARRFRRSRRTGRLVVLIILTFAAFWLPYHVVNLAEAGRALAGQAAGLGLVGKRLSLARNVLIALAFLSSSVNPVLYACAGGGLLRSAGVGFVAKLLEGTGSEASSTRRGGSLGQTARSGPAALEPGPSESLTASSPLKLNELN
Molecule,Inhibition (%) of LTB4 receptor binding (LTB4 receptor; 100 nM) [%],Inhibition (%) of LTB4 receptor binding (LTB4 receptor; 1 uM) [%],inhibition at 0.0032 µM ([1]; 3.2 nM) [%],inhibition at 0.016 µM ([1]; 16 nM) [%],inhibition at 0.08 µM ([1]; 80 nM) [%],inhibition at 0.4 µM ([1]; 400 nM) [%],inhibition at 0.016 µM ([2]; 0.016 μM) [%],inhibition at 0.08 µM ([2]; 0.08 μM) [%],inhibition at 0.4 µM ([2]; 0.4 μM) [%],inhibition at 2 µM ([2]; 2 μM) [%],inhibition at 10 µM ([2]; 10 μM) [%],IC50 [2] [nM],IC50 [1] [nM],also measured
"Cc1nc(-c2ccc(OCCCCOc3ccc(C(=N)N)cc3)cc2)c(C(C)C)s1 [DW1351, 4-{4-[4-(5-isopropyl-2-methyl-1,3-thiazol-4-yl)phenoxy]butoxy}-benzamidine]",89,100,–,–,–,–,–,–,–,–,–,–,–,–
"COc1cc(C(=O)N(C(C)C)C(C)C)ccc1OCCCCOc1ccc2c(N)noc2c1 [HS1141, N,N-diisopropyl-4-[4-(3-aminobenzo[d]isooxazole-6-yloxy)butoxy]-3-methoxybenzamide]",–,100,1.2,3,12,23.5,9,33,50.4,75.3,88.7,421,–,–
"Cc1nc(-c2ccc(OCCCCOc3ccc(C(=N)NO)cc3)cc2)c(C(C)C)s1 [DW1349, N— hydroxy-4-{4-[4-(5-isopropyl-2-methyl-1,3-thiazol-4-yl)phenoxy]butoxy}-benzamidine]",32.7,87.2,–,–,–,–,–,–,–,–,–,–,–,–
"Cc1nc(-c2ccc(OCCCCCOc3ccc(C(=N)NO)cc3)cc2)c(C(C)C)s1 [DW1350, N-hydroxy-4-{5-[4-(5-isopropyl-2-methyl-1,3-thiazol-4-yl)phenoxy]pentoxy}-benzamidine]",–,92.3,1,68.8,82.3,88,32.2,53.9,65.2,84.3,91.3,75,19.9,"Inhibition (%) of LTB4 receptor binding (LTB4 receptor; 100 nM, 0.1 µM): 10% and < 10%; Inhibition (%) of LTB4 receptor binding (LTB4 receptor; 100 nM, listed as 1350, 0.1 µM): <10%"
"4-[5-[4-(aminoiminomethyl)phenoxy]pentoxy]-3-methoxy-N,N-bis(1-methylethyl)benzamide maleic acid [CGS-25019C]",–,–,–,–,–,–,–,–,–,–,–,–,–,% inhibitory action ([1]; 3.2 nM): −8.9%; % inhibitory action ([1]; 16 nM): 8.3%; % inhibitory action ([1]; 80 nM): 0.0%; % inhibitory action ([1]; 400 nM): 17.7%; Inhibitory action (%) ([2]; 0.016 μM): 0%; Inhibitory action (%) ([2]; 0.08 μM): 0%; Inhibitory action (%) ([2]; 0.4 μM): 2%; Inhibitory action (%) ([2]; 2 μM): 9.2%; Inhibitory action (%) ([2]; 10 μM): 17.3%
"Cc1nc(-c2ccc(OCCCCCOc3ccc(C(=N)N)cc3)cc2)c(C(C)C)s1 [DW1352, 4-{5-[4-(5-isopropyl-2-methyl-1,3-thiazol-4-yl)phenoxy]pentoxy}-benzamidine]",88,100,50,81.8,83.9,92.7,25,48.7,61.3,81.7,90,131,1.25,–
